Laboratory results as given in patent US12622948B2 (SUN PHARMACEUTICAL INDUSTRIES LIMITED, priority 2020, dated 2026).
Marks after values point to notes of the source that are not given here. Non-standard residues stand in square brackets, D forms with d. No end group written: not given here. Moiety A = not defined here; Nva = CCC[C@H](N)C(=O)O

System: type 2 diabetic mouse (db/db) model
Assay: Efficacy study in db/db mice at 10 nM/kg dose (blood glucose, body weight, food intake)
Assay type: in vivo
Conditions: for Cumulative food Intake (g) 0-48 hr. vs. Baseline, Mean / Cumulative food Intake (g) 0-96 hr. vs. Baseline, Mean / Delta Blood Glucose (mM) Mean / Body Wt. Change (%) 48 hr. vs. Baseline, Mean / Body Wt. Change (%) 96 hr. vs. Baseline, Mean: 10 nM/kg s.c. single dose
Protocol: The effect of compounds of present invention on blood glucose, food intake and body weight was studied in mice. This study was performed in a type 2 diabetic mouse (db/db) model. […] Baseline blood glucose was measured from all the animals. […] All the animals were administered with test items subcutaneously. […] Delta blood glucose (mM) was calculated.

[1] = Study 4, db/db mice, 0 hr (baseline)
[2] = db/db mice, 10 nM/kg s.c., vs diabetic control

Row | Compound | Cumulative food Intake (g) 0-48 hr. vs. Baseline, Mean (Study 4, db/db mice) | Cumulative food Intake (g) 0-96 hr. vs. Baseline, Mean (Study 4, db/db mice) | Delta Blood Glucose (mM) Mean [1] | Delta Blood Glucose (mM) Mean (Study 4, db/db mice, 4 hr) | Delta Blood Glucose (mM) Mean (Study 4, db/db mice, 8 hr) | Delta Blood Glucose (mM) Mean (Study 4, db/db mice, 12 hr) | Delta Blood Glucose (mM) Mean (Study 4, db/db mice, 24 hr) | Body Wt. Change (%) 48 hr. vs. Baseline, Mean (Study 4, db/db mice, 48 hr) | Delta Blood Glucose (mM) Mean (Study 4, db/db mice, 48 hr) | Delta Blood Glucose (mM) Mean (Study 4, db/db mice, 72 hr) | Body Wt. Change (%) 96 hr. vs. Baseline, Mean (Study 4, db/db mice, 96 hr) | Delta Blood Glucose (mM) Mean (Study 4, db/db mice, 96 hr) | further results
1 | CC[C@H](NC(=O)[C@@H](NC(=O)[C@H](CO)NC(=O)[C@H](Cc1ccc(O)cc1)NC(=O)[C@H](CC(=O)O)NC(=O)[C@H](CO)NC(=O)[C@@H](NC(=O)[C@H](Cc1ccccc1)NC(=O)[C@@H](NC(=O)CNC(=O)[C@H](CCC(=O)O)NC(=O)C(C)(C)NC(=O)[C@@H](N)Cc1ccc(O)cc1)[C@@H](C)O)[C@@H](C)O)[C@@H](C)CC)C(=O)N[C@@H](CC(C)C)C(=O)N[C@@H](CC(=O)O)C(=O)N[C@@H](CCCCN)C(=O)N[C@H](C(=O)N[C@@H](C)C(=O)N[C@@H](CCC(N)=O)C(=O)N[C@@H](CCCCNC(=O)COCCOCCNC(=O)C(C)(C)NC(=O)CC[C@H](NC(=O)CCCCCCCCCCCCCCCCCCC(=O)O)C(=O)O)C(=O)N[C@@H](C)C(=O)N[C@@H](Cc1ccccc1)C(=O)N[C@H](C(=O)N[C@@H](CCC(N)=O)C(=O)N[C@@H](Cc1c[nH]c2ccccc12)C(=O)N[C@@H](CC(C)C)C(=O)N[C@H](C(=O)N[C@@H](C)C(=O)NCC(=O)NCC(=O)N1CCC[C@H]1C(=O)N[C@@H](CO)C(=O)N[C@@H](CO)C(=O)NCC(=O)N[C@@H](C)C(=O)N1CCC[C@H]1C(=O)N1CCC[C@H]1C(=O)N1CCC[C@H]1C(=O)N[C@@H](CO)C(N)=O)[C@@H](C)CC)C(C)C)[C@@H](C)CC [Compound 10] | 8.2*** g | 20.5** g | 0 mM | −12.1*** mM | −13.6*** mM | −14.7*** mM | −15.6*** mM | −4.5*** % | −4.0** mM | 2.3 mM | −3.1*** % | 1.7 mM | 
2 | CCCC[C@H](NC(=O)[C@@H](NC(=O)[C@H](CO)NC(=O)[C@H](Cc1ccc(O)cc1)NC(=O)[C@H](CC(=O)O)NC(=O)[C@H](CO)NC(=O)[C@@H](NC(=O)[C@H](Cc1ccccc1)NC(=O)[C@@H](NC(=O)CNC(=O)[C@H](CCC(=O)O)NC(=O)C(C)(C)NC(=O)[C@@H](N)Cc1ccc(O)cc1)[C@@H](C)O)[C@@H](C)O)[C@@H](C)CC)C(=O)N[C@@H](CC(C)C)C(=O)N[C@@H](CC(=O)O)C(=O)N[C@@H](CCCCN)C(=O)N[C@H](C(=O)N[C@@H](C)C(=O)N[C@@H](CCC(N)=O)C(=O)N[C@@H](CCCCNC(=O)COCCOCCNC(=O)C(C)(C)NC(=O)CC[C@H](NC(=O)CCCCCCCCCCCCCCCCCCC(=O)O)C(=O)O)C(=O)N[C@@H](C)C(=O)N[C@@H](Cc1ccccc1)C(=O)N[C@H](C(=O)N[C@@H](CCC(N)=O)C(=O)N[C@@H](Cc1c[nH]c2ccccc12)C(=O)N[C@@H](CC(C)C)C(=O)N[C@H](C(=O)N[C@@H](C)C(=O)NCC(=O)NCC(=O)N1CCC[C@H]1C(=O)N[C@@H](CO)C(=O)N[C@@H](CO)C(=O)NCC(=O)N[C@@H](C)C(=O)N1CCC[C@H]1C(=O)N1CCC[C@H]1C(=O)N1CCC[C@H]1C(=O)N[C@@H](CO)C(N)=O)[C@@H](C)CC)C(C)C)[C@@H](C)CC [Compound 11] | 8.2*** g | 21.7* g | 0 mM | −13.3*** mM | −13.3*** mM | −13.6*** mM | −15.4*** mM | −4.7*** % | −6.1*** mM | 3.6 mM | −2.0*** % | 6 mM | 
3 | Compound 4: SEQ ID 07 polypeptide, Lys20 acylated with Moiety A (Y[Nva]EGTFTSDYSI[Nva]LDKIAQK(Moiety A)AFVQWLIAGGPSSGAPPPS-NH2; not fully specified; reading uncertain) |  |  |  |  |  |  |  |  |  |  |  |  | Cumulative food Intake (g) 0-48 hr. vs. Baseline, Mean (Study 2, db/db mice): 4.6*** g; Cumulative food Intake (g) 0-96 hr. vs. Baseline, Mean (Study 2, db/db mice): 14.4*** g; Delta Blood Glucose (mM) Mean (Study 2, db/db mice, 0 hr (baseline)): 0 mM; Delta Blood Glucose (mM) Mean (Study 2, db/db mice, 4 hr): −10.4*** mM; Delta Blood Glucose (mM) Mean (Study 2, db/db mice, 8 hr): −13.3*** mM; Delta Blood Glucose (mM) Mean (Study 2, db/db mice, 12 hr): −13.8*** mM; Delta Blood Glucose (mM) Mean (Study 2, db/db mice, 24 hr): −4.9* mM; Body Wt. Change (%) 48 hr. vs. Baseline, Mean (Study 2, db/db mice, 48 hr): −3.8*** %; Delta Blood Glucose (mM) Mean (Study 2, db/db mice, 48 hr): −3.7* mM; Delta Blood Glucose (mM) Mean (Study 2, db/db mice, 72 hr): 0.2 mM; Body Wt. Change (%) 96 hr. vs. Baseline, Mean (Study 2, db/db mice, 96 hr): −1.9** %; Delta Blood Glucose (mM) Mean (Study 2, db/db mice, 96 hr): -1.9 mM; blood glucose reduction [2]: statistically significant blood glucose reduction upto 96 hr post treatment; body weight reduction [2]: statistically significant reduction in food intake and body weight; reduction in food consumption [2]: statistically significant reduction in food intake
